Consider 15 compounds from US10150760B2, “Compounds for use in preparing heterocyclic triazole agonists of the APJ receptor” (AMGEN INC., priority 2016, dated 2018).

This test addresses human APJ receptor (Homo sapiens (Human), UniProt P35414). Kind of test: [35S]GTPγS binding assay on membranes from CHO cells stably expressing human APJ receptor. The class given is biochemical. The settings on record: read-out: Activity hAPJ SPA EC50 IP. The protocol:
The human APJ receptor was cloned by polymerase chain reaction and the gene encoding the receptor was subcloned in pFLAG-CMV™-3 expression vector (Sigma, Saint Louis, Mo. USA) in-house at Amgen. A GTPγS binding assay was performed on membranes prepared from CHO cells stably expressing human APJ receptor. The optimum experimental conditions for the concentrations of GDP, MgCl2, and NaCl in the assay buffer were initially determined. The assay was performed in assay buffer [20 mM HEPES, pH 7.5, 5 mM MgCl2, and 0.1% (w/v) BSA with 200 mM NaCl, 3 μM GDP] and membranes expressing human APJ receptor/well along with WGA PS beads. The reaction was initiated by addition of 0.2 nM [^35S]GTPγS (Perkin Elmer Life and Analytical Sciences, Waltham USA) in the absence or presence of various ligands and incubated at RT for 90 min. Nonspecific binding was determined in the presence of 100 μM GTPγS and was always less than 0.2% of total binding. All the results presented are means of several independent experiments and analyzed by non-linear regression methods using commercially available program Prism (GraphPad, San Diego, Calif.) to obtain EC50 detailed in Table 38.

Structures are written as SMILES.

Sequence of human APJ receptor (P35414 whole entry): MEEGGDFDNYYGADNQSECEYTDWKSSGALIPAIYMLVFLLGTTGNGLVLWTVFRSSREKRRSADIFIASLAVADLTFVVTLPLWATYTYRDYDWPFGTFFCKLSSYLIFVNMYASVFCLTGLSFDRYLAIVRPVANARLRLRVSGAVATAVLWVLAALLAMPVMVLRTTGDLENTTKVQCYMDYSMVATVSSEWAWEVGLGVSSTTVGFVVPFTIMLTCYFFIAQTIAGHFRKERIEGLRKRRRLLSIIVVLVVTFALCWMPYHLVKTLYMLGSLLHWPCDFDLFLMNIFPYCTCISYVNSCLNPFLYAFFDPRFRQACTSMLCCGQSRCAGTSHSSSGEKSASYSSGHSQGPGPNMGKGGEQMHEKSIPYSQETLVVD

The EC50 is the midpoint of the concentration-response curve. On to `COc1cccc(OC)c1-n1c(NS(=O)(=O)[C@@H](C)[C@H](OC)c2ncc(C)cn2)nnc1[C@@H]1CCNC1` (mixture of isomers) [Example 45.0, (1R,2S)-N-(4-(2,6-Dimethoxyphenyl)-5-((R)-pyrrolidin-3-yl)-4H-1,2,4-triazol-3-yl)-1-methoxy-1-(5-methylpyrimidin-2-yl)propane-2-sulfonamide and (1R,2S)-N-(4-(2,6-dimethoxyphenyl)-5-((S)-pyrrolidin-3-yl)-4H-1,2,4-triazol-3-yl)-1-methoxy-1-(5-methylpyrimidin-2-yl)propane-2-sulfonamide], for which the EC50 was determined as 510 nM.

`COc1cccc(OC)c1-n1c(NS(=O)(=O)[C@@H](C)[C@H](C)c2ncc(C)cn2)nnc1[C@H]1CCCO1` (mixture of isomers) [Example 48.0, (2S,3R)-N-(4-(2,6-dimethoxyphenyl)-5-((R)-tetrahydrofuran-2-yl)-4H-1,2,4-triazol-3-yl)-3-(5-methylpyrimidin-2-yl)butane-2-sulfonamide and (2S,3R)-N-(4-(2,6-dimethoxyphenyl)-5-((S)-tetrahydrofuran-2-yl)-4H-1,2,4-triazol-3-yl)-3-(5-methylpyrimidin-2-yl)butane-2-sulfonamide]: the EC50 was 3.9 nM.

On to `COc1cccc(OC)c1-n1c(NS(=O)(=O)[C@@H](C)[C@H](C)c2ncc(Cl)cn2)nnc1[C@H]1CCO1` (mixture of isomers) [Example 142.0, (2S,3R)-3-(5-chloropyrimidin-2-yl)-N-(4-(2,6-dimethoxyphenyl)-5-((R)-oxetan-2-yl)-4H-1,2,4-triazol-3-yl)butane-2-sulfonamide and (2S,3R)-3-(5-chloropyrimidin-2-yl)-N-(4-(2,6-dimethoxyphenyl)-5-((S)-oxetan-2-yl)-4H-1,2,4-triazol-3-yl)butane-2-sulfonamide], for which the EC50 was 1.9 nM.

Turning to `COc1cccc(OC)c1-n1c(NS(=O)(=O)CCc2ccc(F)cc2C#N)nnc1[C@@H]1CCCO1` (mixture of isomers) [Example 146.0, (S)-2-(2-Cyano-4-fluorophenyl)-N-(4-(2,6-dimethoxyphenyl)-5-(tetrahydrofuran-2-yl)-4H-1,2,4-triazol-3-yl)ethanesulfonamide and (R)-2-(2-cyano-4-fluorophenyl)-N-(4-(2,6-dimethoxyphenyl)-5-(tetrahydrofuran-2-yl)-4H-1,2,4-triazol-3-yl)ethanesulfonamide], the EC50 worked out at 450 nM.

As for `COc1cnc([C@@H](C)[C@H](C)S(=O)(=O)Nc2nnc([C@@H]3CC[C@H](C)O3)n2-c2c(OC)cccc2OC)nc1` (mixture of isomers) [Example 249.0, (2S,3R)-N-(4-(2,6-dimethoxyphenyl)-5-((2R,5R)-5-methyltetrahydro-2-furanyl)-4H-1,2,4-triazol-3-yl)-3-(5-methoxy-2-pyrimidinyl)-2-butanesulfonamide and (2S,3R)-N-(4-(2,6-dimethoxyphenyl)-5-((2S,5S)-5-methyltetrahydro-2-furanyl)-4H-1,2,4-triazol-3-yl)-3-(5-methoxy-2-pyrimidinyl)-2-butanesulfonamide], the EC50 is 540 nM.

Turning to `COCC1(n2c(NS(=O)(=O)[C@@H](C)[C@H](OC)c3ncc(Cl)cn3)nnc2[C@H]2CCOC2)CC1` (mixture of isomers) [Example 303.0, (1R,2S)-1-(5-chloro-2-pyrimidinyl)-1-methoxy-N-(4-(1-(methoxymethyl)cyclopropyl)-5-((3R)-tetrahydro-3-furanyl)-4H-1,2,4-triazol-3-yl)-2-propanesulfonamide and (1R,2S)-1-(5-chloro-2-pyrimidinyl)-1-methoxy-N-(4-(1-(methoxymethyl)cyclopropyl)-5-((3S)-tetrahydro-3-furanyl)-4H-1,2,4-triazol-3-yl)-2-propanesulfonamide], the EC50 was 340 nM.

As for `COCC1(n2c(NS(=O)(=O)[C@@H](C)[C@H](OC)c3ncc(Cl)cn3)nnc2[C@H]2COCCO2)CC1` (mixture of isomers) [Example 304.0, (1R,2S)-N-(5-((S)-1,4-dioxan-2-yl)-4-(1-(methoxymethyl)cyclopropyl)-4H-1,2,4-triazol-3-yl)-1-(5-chloropyrimidin-2-yl)-1-methoxypropane-2-sulfonamide and (1R,2S)-N-(5-((R)-1,4-dioxan-2-yl)-4-(1-(methoxymethyl)cyclopropyl)-4H-1,2,4-triazol-3-yl)-1-(5-chloropyrimidin-2-yl)-1-methoxypropane-2-sulfonamide], the EC50 was found to be 210 nM.

In the case of `COc1cccc(OC)c1-n1c(NS(=O)(=O)CCc2ncc(Cl)cn2)nnc1[C@@H]1COCCO1` (mixture of isomers) [Example 387.0, 2-(5-chloro-2-pyrimidinyl)-N-(4-(2,6-dimethoxyphenyl)-5-((2R)-1,4-dioxan-2-yl)-4H-1,2,4-triazol-3-yl)ethanesulfonamide and 2-(5-chloro-2-pyrimidinyl)-N-(4-(2,6-dimethoxyphenyl)-5-((2S)-1,4-dioxan-2-yl)-4H-1,2,4-triazol-3-yl)ethanesulfonamide], the EC50 amounted to 48 nM.

In the case of `COc1cccc(OC)c1-n1c(NS(=O)(=O)CCc2ccc(Cl)cc2)nnc1[C@@H]1CCCO1` (racemic) [Example 143.0, (S)-2-(4-Chlorophenyl)-N-(4-(2,6-dimethoxyphenyl)-5-(tetrahydrofuran-2-yl)-4H-1,2,4-triazol-3-yl)ethanesulfonamide and (R)-2-(4-chlorophenyl)-N-(4-(2,6-dimethoxyphenyl)-5-(tetrahydrofuran-2-yl)-4H-1,2,4-triazol-3-yl)ethanesulfonamide], the EC50 is 120 nM.

As to `CO[C@H]1CCC[C@@H](OC)[C@@H]1n1c(NS(=O)(=O)[C@@H](C)[C@H](C)c2ncc(C)cn2)nnc1[C@@H]1CCCO1` (single isomer, unassigned) [Example 3.0, (2S,3R)-N-(4-((1r,2R,6S)-2,6-Dimethoxycyclohexyl)-5-((2S)-tetrahydro-2-furanyl)-4H-1,2,4-triazol-3-yl)-3-(5-methyl-2-pyrimidinyl)-2-butanesulfonamide or (2S,3R)-N-(4-((1r,2R,6S)-2,6-dimethoxycyclohexyl)-5-((2R)-tetrahydro-2-furanyl)-4H-1,2,4-triazol-3-yl)-3-(5-methyl-2-pyrimidinyl)-2-butanesulfonamide], the EC50 was found to be 1200 nM.

With `COc1cccc(OC)c1-n1c(NS(=O)(=O)CCc2ccc(Cl)cc2)nnc1[C@H]1CCOC1` (single isomer, unassigned) [Example 9.0, (R)-2-(4-Chlorophenyl)-N-(4-(2,6-dimethoxyphenyl)-5-(tetrahydrofuran-3-yl)-4H-1,2,4-triazol-3-yl)ethanesulfonamide or (S)-2-(4-chlorophenyl)-N-(4-(2,6-dimethoxyphenyl)-5-(tetrahydrofuran-3-yl)-4H-1,2,4-triazol-3-yl)ethanesulfonamide], the EC50 came to 210 nM.

As to `COc1cccc(OC)c1-n1c(NS(=O)(=O)[C@@H](C)[C@H](C)c2ncc(C#N)cn2)nnc1[C@@H]1CCCO1` (single isomer, unassigned) [Example 24.0, (2S,3R)-3-(5-Cyano-2-pyrimidinyl)-N-(4-(2,6-dimethoxyphenyl)-5-((2S)-tetrahydro-2-furanyl)-4H-1,2,4-triazol-3-yl)-2-butanesulfonamide or (2S,3R)-3-(5-cyano-2-pyrimidinyl)-N-(4-(2,6-dimethoxyphenyl)-5-((2R)-tetrahydro-2-furanyl)-4H-1,2,4-triazol-3-yl)-2-butanesulfonamide], the EC50 is 4.5 nM.

As for `COc1ncnc(OC)c1-n1c(NS(=O)(=O)[C@@H](C)[C@H](C)c2ccc(Cl)cn2)nnc1[C@@H]1CCOC1` (single isomer, unassigned) [Example 37.0, (2S,3R)-3-(5-chloro-2-pyridinyl)-N-(4-(4,6-dimethoxy-5-pyrimidinyl)-5-((3S)-tetrahydro-3-furanyl)-4H-1,2,4-triazol-3-yl)-2-butanesulfonamide or (2S,3R)-3-(5-chloro-2-pyridinyl)-N-(4-(4,6-dimethoxy-5-pyrimidinyl)-5-((3R)-tetrahydro-3-furanyl)-4H-1,2,4-triazol-3-yl)-2-butanesulfonamide], the EC50 was 12 nM.

Regarding `COc1ncnc(OC)c1-n1c(NS(=O)(=O)[C@@H](C)[C@H](C)c2ccc(Cl)cn2)nnc1[C@H]1CCOC1` (single isomer, unassigned) [Example 38.0, (2S,3R)-3-(5-chloro-2-pyridinyl)-N-(4-(4,6-dimethoxy-5-pyrimidinyl)-5-((3R)-tetrahydro-3-furanyl)-4H-1,2,4-triazol-3-yl)-2-butanesulfonamide or (2S,3R)-3-(5-chloro-2-pyridinyl)-N-(4-(4,6-dimethoxy-5-pyrimidinyl)-5-((3S)-tetrahydro-3-furanyl)-4H-1,2,4-triazol-3-yl)-2-butanesulfonamide], the EC50 came to 19 nM.

For the compound `COc1cccc(OC)c1-n1c(NS(=O)(=O)[C@@H](C)[C@H](C)c2ncc(Cl)cn2)nnc1[C@@H]1COCCO1` (single isomer, unassigned) [Example 39.0, (2S,3R)-3-(5-chloro-2-pyrimidinyl)-N-(4-(2,6-dimethoxyphenyl)-5-((2R)-1,4-dioxan-2-yl)-4H-1,2,4-triazol-3-yl)-2-butanesulfonamide or (2S,3R)-3-(5-chloro-2-pyrimidinyl)-N-(4-(2,6-dimethoxyphenyl)-5-((2S)-1,4-dioxan-2-yl)-4H-1,2,4-triazol-3-yl)-2-butanesulfonamide], the EC50 is 5.3 nM.
